Measurements reported in patent US8809369B2, “Tetrahydroquinoline derivatives” (Hoffmann-La Roche Inc., priority 2011, dated 2014).

Each compound was assayed on AMP-activated protein kinase (AMPK) (assay: p-AMPK expression level in L6 cell line by Western blot). Conditions: L6 cells, 2 hours compound treatment.
Format: cell-based
Description: Evaluation of p-AMPK and p-ACC expression level in L6 cell line by Western-Blot
This method evaluates the changes of AMP-activated protein kinase (AMPK) and ACC (acetyl-CoA carboxylase) activity by small molecular modulators through detecting the level of p-AMPK and p-ACC proteins in L6 cells using Western blot.
L6 cells are maintained in DMEM medium supplemented with 10% FBS in 10-cm dishes. Prior to compounds treatment, L6 cells are seeded in 12-well-plates at concentration of 3×10^4 cells per well. After 24 hours of incubation in 12-well plates, L6 cells are differentiated by replacing the 10% FBS-DMEM medium with 2% FBS-DMEM. Differentiation usually takes 5 days, during which the culture medium is changed every 2 days.
The compound concentrations typically range from 32 μM to 0.5 μM with 2-fold dilution in 2 ml DMEM and 7 doses. The final DMSO concentration is 0.4%. Berberine is used as a positive control at concentration of 16 μM. Before compound treatment, starve L6 cells for 2 hours by replacing the medium with DMEM, and then gently aspirate the media from each well. Add the compounds into the plates and incubate at 37 degree 5% CO2 for 2 hours.
Prepare lysis buffer (RIPA buffer with protease-inhibitors and phosphorate-inhibitors) and place it on ice. After two hour's compound treatment, aspirate the medium from 12-well plates, add 70 ul lysis buffer to each well and keep the plates on ice for 5 min. Then scrape the cell lysate off the plates and transfer it to 1.5 ml eppendorf tubes. Keep the tube on ice for more 10 min, centrifugate the lysate at 13000 rpm, 4 degrees for 15 min and transfer the supernatant to clean tubes.
Determine protein concentration for each sample using Quickstart Bradford protein quantitation kit. Mix 20 ug protein sample with 4 times loading buffer, heat them at 100° C. for 5 min, store the sample in −80° C. or perform Western blot assay directly. For Western blot assay, load 20 ug samples and 10 ul Pre-stained Protein Maker into 4-12% SDS-PAGE gradient gel. Run the samples at 100 V in the stacking gel and at 120 V in resolving gel until the Bromophenol dye reaches the bottom. Transfer the electrophoresed proteins to a PVDF membrane using Bio-Rad's Transblot for 120 min at 300 mA. Following the completion of transfer, the membrane is blocked with 5% non-fat milk for 2 hours at room temperature before incubated with primary antibody (p-AMPK and p-ACC) at 4° C. overnight. On the next day wash the membrane twice with TBST, add secondary antibody and incubate for 1 hour at room temperature. Wash the membrane twice with TBST. Develop p-AMPK and p-ACC protein expression level on the film in dark room with Amersham ECL plus kit. The bands of each sample are quantitated by Bio-Rad system, The AC1.3 value is analyzed using Prism 5.0.
For CS(=O)(=O)NC(=O)c1ccc2c(c1)C1(CCCC1)CC(c1cccc(N3CCOCC3)c1)N2 (centres unmarked) [Example 5, N-(methylsulfonyl)-2′-(3-morpholinophenyl)-2′,3′-dihydro-1′H-spiro[cyclopentane-1,4′-quinoline]-6′-carboxamide], the “Activity AC1.3 (AMPKp)” value was 9 µM. For CC1(C)CC(c2cc(N3CCOCC3)ccc2Cl)Nc2ccc(C(=O)NS(=O)(=O)C3CC3)cc21 (centres unmarked) [Example 25, Cyclopropanesulfonic acid [2-(2-chloro-5-morpholin-4-yl-phenyl)-4,4-dimethyl-1,2,3,4-tetrahydro-quinoline-6-carbonyl]-amide], the “Activity AC1.3 (AMPKp)” value was 0.21 µM. In the case of Cc1ccc(N2CCOC2=O)cc1C1CC(C)(C)c2cc(C(=O)NS(C)(=O)=O)ccc2N1 (centres unmarked) [Example 27, N-{4,4-dimethyl-2-[2-methyl-5-(2-oxo-oxazolidin-3-yl)-phenyl]-1,2,3,4-tetrahydro-quinoline-6-carbonyl}-methanesulfonamide], the “Activity AC1.3 (AMPKp)” value is reported as 0.01 µM. For Cc1ccc(N2CCOC2=O)cc1C1CC(C)(C)c2cc(C(=O)NS(=O)(=O)C3CC3)ccc2N1 (centres unmarked) [Example 28, Cyclopropanesulfonic acid {4,4-dimethyl-2-[2-methyl-5-(2-oxo-oxazolidin-3-yl)-phenyl]-1,2,3,4-tetrahydro-quinoline-6-carbonyl}-amide], the “Activity AC1.3 (AMPKp)” value was 0.02 µM. CC1(C)CC(c2cccc(C(N)=O)c2)Nc2ccc(C(=O)NS(C)(=O)=O)cc21 (centres unmarked) [Example 32, 3-(6-Methanesulfonylaminocarbonyl-4,4-dimethyl-1,2,3,4-tetrahydroquinolin-2-yl)-benzamide] was tested, and the “Activity AC1.3 (AMPKp)” value was 0.002 µM. CC1(C)CC(c2cccc(C#N)c2)Nc2ccc(C(=O)NS(C)(=O)=O)cc21 (centres unmarked) [Example 33, N-[2-(3-cyano-phenyl)-4,4-dimethyl-1,2,3,4-tetrahydro-quinoline-6-carbonyl]-methanesulfonamide] was tested, and the “Activity AC1.3 (AMPKp)” value was 0.08 µM. With CC1(C)CC(c2cccc(C(N)=O)c2)Nc2ccc(C(=O)NS(=O)(=O)C3CC3)cc21 (centres unmarked) [Example 34, 3-(6-Cyclopropanesulfonylaminocarbonyl-4,4-dimethyl-1,2,3,4-tetrahydro-quinolin-2-yl)-benzamide] the “Activity AC1.3 (AMPKp)” value was 0.08 µM. With CC1(C)CC(c2cccc(C#N)c2)Nc2ccc(C(=O)NS(=O)(=O)C3CC3)cc21 (centres unmarked) [Example 35, Cyclopropanesulfonic acid [2-(3-cyano-phenyl)-4,4-dimethyl-1,2,3,4-tetrahydro-quinoline-6-carbonyl]-amide] the “Activity AC1.3 (AMPKp)” value was 0.24 µM. For Cc1ccc(N2CCN(c3cncc(C4CC(C)(C)c5cc(C(=O)NS(=O)(=O)C6CC6)ccc5N4)c3)CC2)c(C)c1 (centres unmarked) [Example 50, Cyclopropanesulfonic acid (2-{5-[4-(2,4-dimethyl-phenyl)-piperazin-1-yl]-pyridin-3-yl}-4,4-dimethyl-1,2,3,4-tetrahydro-quinoline-6-carbonyl)-amide], the “Activity AC1.3 (AMPKp)” value was 0.16 µM. CN1CCN(c2cccc(C3CC(C)(C)c4cc(C(=O)NS(=O)(=O)C5CC5)ccc4N3)c2)CC1 (centres unmarked) [Example 51, Cyclopropanesulfonic acid {4,4-dimethyl-2-[3-(4-methyl-piperazin-1-yl)-phenyl]-1,2,3,4-tetrahydro-quinoline-6-carbonyl}-amide] was tested, and the “Activity AC1.3 (AMPKp)” value was 0.18 µM. With CC1(C)CC(c2cccc(N3CCCC3)c2)Nc2ccc(C(=O)NS(=O)(=O)C3CC3)cc21 (centres unmarked) [Example 52, Cyclopropanesulfonic acid [4,4-dimethyl-2-(3-pyrrolidin-1-yl-phenyl)-1,2,3,4-tetrahydro-quinoline-6-carbonyl]-amide] the “Activity AC1.3 (AMPKp)” value was 0.55 µM. CC1(C)CC(c2cncc(N3CCOCC3)c2)Nc2ccc(C(=O)NS(=O)(=O)C3CC3)cc21 (centres unmarked) [Example 54, Cyclopropanesulfonic acid [4,4-dimethyl-2-(5-morpholin-4-yl-pyridin-3-yl)-1,2,3,4-tetrahydro-quinoline-6-carbonyl]-amide] was tested, and the “Activity AC1.3 (AMPKp)” value was 0.03 µM. CC1(C)CC(c2cccc(N3CCOCC3)c2)Nc2c(C(=O)NS(C)(=O)=O)cc(F)cc21 (centres unmarked) [Example 56, N-[6-fluoro-4,4-dimethyl-2-(3-morpholin-4-yl-phenyl)-1,2,3,4-tetrahydro-quinoline-8-carbonyl]-methanesulfonamide] was tested, and the “Activity AC1.3 (AMPKp)” value was 0.03 µM. In the case of CN(C)c1cccc(C2CC(C)(C)c3cc(Cl)cc(C(=O)NS(=O)(=O)C4CC4)c3N2)c1 (centres unmarked) [Example 61, Cyclopropanesulfonic acid [6-chloro-2-(3-dimethylamino-phenyl)-4,4-dimethyl-1,2,3,4-tetrahydro-quinoline-8-carbonyl]-amide], the “Activity AC1.3 (AMPKp)” value is reported as 0.1 µM. For CC1(C)CC(c2cccc(N3CCOC3=O)c2)Nc2c(C(=O)NS(C)(=O)=O)cc(Cl)cc21 (centres unmarked) [Example 64, N-{6-chloro-4,4-dimethyl-2-[3-(2-oxo-oxazolidin-3-yl)-phenyl]-1,2,3,4-tetrahydro-quinoline-8-carbonyl}-methanesulfonamide], the “Activity AC1.3 (AMPKp)” value was 0.1 µM. With Cc1cc(C(=O)NS(=O)(=O)C2CC2)cc2c1NC(c1cccc(N3CCOCC3)c1)CC2(C)C (centres unmarked) [Example 66, Cyclopropanesulfonic acid [4,4,8-trimethyl-2-(3-morpholin-4-yl-phenyl)-1,2,3,4-tetrahydro-quinoline-6-carbonyl]-amide] the “Activity AC1.3 (AMPKp)” value was 12.8 µM. In the case of CN1CCN(c2cccc(C3CC(C)(C)c4cccc(C(=O)NS(C)(=O)=O)c4N3)c2)CC1 (centres unmarked) [Example 67, N-{4,4-dimethyl-2-[3-(4-methyl-piperazin-1-yl)-phenyl]-1,2,3,4-tetrahydro-quinoline-8-carbonyl}-methanesulfonamide], the “Activity AC1.3 (AMPKp)” value is reported as 0.02 µM. Cc1ccc(N2CCN(c3cccc(C4CC(C)(C)c5cc(F)cc(C(=O)NS(C)(=O)=O)c5N4)c3)CC2)cc1 (centres unmarked) [Example 68, N-{6-fluoro-4,4-dimethyl-2-[3-(4-p-tolyl-piperazin-1-yl)-phenyl]-1,2,3,4-tetrahydro-quinoline-8-carbonyl}-methanesulfonamide] was tested, and the “Activity AC1.3 (AMPKp)” value was 0.003 µM. CC1(C)CC(c2cccc(N3CCCC3)c2)Nc2c(C(=O)NS(C)(=O)=O)cc(Cl)cc21 (centres unmarked) [Example 71, N-[6-chloro-4,4-dimethyl-2-(3-pyrrolidin-1-yl-phenyl)-1,2,3,4-tetrahydro-quinoline-8-carbonyl]-methanesulfonamide] was tested, and the “Activity AC1.3 (AMPKp)” value was 0.08 µM. For CC1(C)CC(c2ccc(F)c(Cl)c2)Nc2ccc(C(=O)NS(=O)(=O)C3CC3)nc21 (centres unmarked) [Example 78, Cyclopropanesulfonic acid [6-(3-chloro-4-fluoro-phenyl)-8,8-dimethyl-5,6,7,8-tetrahydro-[1,5]naphthyridine-2-carbonyl]-amide], the “Activity AC1.3 (AMPKp)” value was 28.9 µM. For CC1(C)CC(c2cccc(N3CCOCC3)c2)Nc2ccc(C(=O)NS(=O)(=O)C3CC3)nc21 (centres unmarked) [Example 79, Cyclopropanesulfonic acid [8,8-dimethyl-6-(3-morpholin-4-yl-phenyl)-5,6,7,8-tetrahydro-[1,5]naphthyridine-2-carbonyl]-amide], the “Activity AC1.3 (AMPKp)” value was 4.46 µM. In the case of CC1(C)CC(c2ccc(F)c(Cl)c2)Nc2ccc(C(=O)NS(C)(=O)=O)nc21 (centres unmarked) [Example 81, N-[6-(3-chloro-4-fluoro-phenyl)-8,8-dimethyl-5,6,7,8-tetrahydro-[1,5]naphthyridine-2-carbonyl]-methanesulfonamide], the “Activity AC1.3 (AMPKp)” value is reported as 0.43 µM. In the case of CC(C)(Nc1cccc(C2CC(C)(C)c3cc(S(=O)(=O)N4CCOCC4)ccc3N2)c1)C(=O)O (centres unmarked) [Example 82, 2-{3-[4,4-Dimethyl-6-(morpholine-4-sulfonyl)-1,2,3,4-tetrahydro-quinolin-2-yl]-phenylamino}-2-methyl-propionic acid], the “Activity AC1.3 (AMPKp)” value is reported as 0.02 µM. CC1(C)CC(c2cccc(NC3(C(=O)O)CC3)c2)Nc2ccc(S(=O)(=O)N3CCOCC3)cc21 (centres unmarked) [Example 83, 1-{3-[4,4-Dimethyl-6-(morpholine-4-sulfonyl)-1,2,3,4-tetrahydro-quinolin-2-yl]-phenylamino}-cyclopropanecarboxylic acid] was tested, and the “Activity AC1.3 (AMPKp)” value was 0.01 µM. For CC1(C)CC(c2cccc(NC3(C(=O)O)CC3)c2)Nc2ccc(S(=O)(=O)NC3CCC3)cc21 (centres unmarked) [Example 84, 1-[3-(6-Cyclobutylsulfamoyl-4,4-dimethyl-1,2,3,4-tetrahydro-quinolin-2-yl)-phenylamino]-cyclopropanecarboxylic acid], the “Activity AC1.3 (AMPKp)” value was 0.2 µM. CC(C)(Nc1cccc(C2CC(C)(C)c3cc(S(=O)(=O)NC4CCC4)ccc3N2)c1)C(=O)O (centres unmarked) [Example 85, 2-[3-(6-Cyclobutylsulfamoyl-4,4-dimethyl-1,2,3,4-tetrahydro-quinolin-2-yl)-phenylamino]-2-methyl-propionic acid] was tested, and the “Activity AC1.3 (AMPKp)” value was 0.03 µM.
